The source of these data is patent US11512085B2, “Heteroaryl compound having drug activity” (SHANGHAI DUDE MEDICAL TECHNOLOGY CO., LTD, priority 2017, dated 2022).

As usually defined, the IC50 is the concentration needed to halve the response being measured. A low value points to greater potency. In general, half-life refers to how long it takes for the measured level to halve. Low readings indicate fast loss, high ones slow loss. One may read the CLint scaled as the capacity of the preparation to metabolise the compound, expressed as a volume cleared per time. A lower CLint scaled goes with slow turnover. As usually defined, the bioavailability is dose-corrected exposure relative to a reference, in per cent.

The target of data set [1] is Btk (Homo sapiens, UniProt Q06187). Briefly: Determination of Btk enzyme inhibitory activity. In kind it is biochemical. The settings on record: 2 nM BTK. As to the method:
Determination of Btk Enzyme Inhibitory Activity
Buffer solution: 50 mM Hepes pH 7.0, 0.1 mM Orthovanadate, 5 mM MgCl2, 0.01% of BSA;
1 mM TK-peptide, […], 50 nM SEB;
Pre-incubation for 15 minutes;
Reaction at 23° C. for 90 minutes;
Color Development Reaction:
Developing buffer solution: 50 mM Hepes pH8.0, 0.8 M KF, 20 mM EDTA, 0.01% BSA;
Reaction at 23° C. for 60 minutes;

The nature of data set [2]: Rat liver microsome stability test. In kind it is in vitro ADME. The settings on record: for Remaining (*NCF = 60 min): RLM 0.5, 60 min, no co-factor; for Remaining (T = 60 min): RLM 0.5, 60 min with NADPH regenerating system; for half-life at 1 µM / microsomal CLint at 1 µM / CLint scaled at 1 µM: rat, liver microsomes, pH 7.4; for half-life at 1 µM: RLM 0.5 (0.5 mg protein/mL); for microsomal CLint at 1 µM / CLint scaled at 1 µM: RLM 0.5; for microsomal CLint at 1 µM: read-out: CLint(mic); for CLint scaled at 1 µM: scaled from CLint(mic). As to the method:
(§1) Preparation of Buffer Solution:
(§2) 1. 100 mM potassium phosphate buffer solution, pH of 7.4
(§3) Preparation of Test Compound Solution:
(§4) 1. A test compound solution (10 mM, 5 μL) was diluted with a methanol solution (495 μL), and a 100 μM solution was prepared;
(§5) 2. Preparation of a working solution: the above solution (50 μL) was diluted with the potassium phosphate buffer solution (450 μL, 100 mM) so as to obtain diluents (10 μM).
(§6) NADPH Regeneration System (Final Concentration 1 Unit/mL of Isocitrate Dehydrogenase):
(§7) 1. beta-NADP, supplier: sigma Cat. No. N0505
(§8) 3. isocitrate dehydrogenase, supplier: sigma Cat. No. 12002
(§9) Cold acetonitrile containing 100 ng/mL of tolbutamide and 100 ng/mL of labetalol serves as an internal standard
(§10) 1. a 10 μL/well of working solution was added into plates (T0, T5, T10, T20, T30, T60, NCF60) beyond the blank;
(§11) 2. a 80 μL/well of microsome solution was added, and incubation was performed at 37° C. for 10 min;
(§12) 3. a 10 μL of 100 mM phosphate buffer solution was added into each well of an NCF60 plate, the plate was placed in a warm bath at 37° C., and timing started;
(§13) 4. a 10 μL/well of NADPH regeneration system was added after preheating, and a reaction started;
(§14) 5. incubation was performed at 37° C., and timing started
(§15) 6. a 300 μL/well of stop solution was added (4° C., containing 100 ng/mL of tolbutamide and 100 ng/mL of labetalol) to end the reaction;
(§16) 7. the plate was shaken for 10 min;
(§17) 8. centrifugation was performed at 4° C. at a rotation speed of 4000 rpm; and
(§18) 9. sample LC/MS/MS detection was performed.
(§19) Data Analysis Use Equation of First Order Kinetics to Calculate t½ and Clint(Mic): […]
(§20) equation of first order kinetics: […]

A short description of data set [3]: Human liver microsome stability test. The data set is classed as in vitro ADME. The settings on record: for Remaining (*NCF = 60 min): HLM 0.5, 60 min, no co-factor; for Remaining (T = 60 min): HLM 0.5, 60 min with NADPH regenerating system; for half-life at 1 µM / microsomal CLint at 1 µM / CLint scaled at 1 µM: human, liver microsomes, pH 7.4; for half-life at 1 µM: HLM 0.5 (0.5 mg protein/mL); for microsomal CLint at 1 µM / CLint scaled at 1 µM: HLM 0.5; for microsomal CLint at 1 µM: read-out: CLint(mic); for CLint scaled at 1 µM: scaled from CLint(mic). As to the method:
as §1, §2, §3, §4, §5, §6, §7, §8, §9, §10, §11, §12, §13, §14, §15, §16, §17, §18, §19, §20
On the technique in general: Liver microsomes are a subcellular fraction often used to study metabolism.

Data set [4] concerns the target LynA (Homo sapiens, UniProt P07948). Briefly: Btk selectivity over LynA (same kinase method, Btk replaced). The data set is classed as biochemical. The settings on record: ratio of IC50 values. As to the method:
(§21) Other kinases (e.g., inhibitory activity of Lck and LynA is determined by replacing the Btk with various kinases and performing operations the same as that in the above method).

The target in data set [5] is Lck (Homo sapiens, UniProt P06239). Briefly: Btk selectivity over Lck (same kinase method, Btk replaced). The data set is classed as biochemical. Conditions: ratio of IC50 values. As to the method:
as §21

The conditions of data set [6]: People; FDA data; cited from earlier work.

Sequence of Btk (Q06187 whole entry): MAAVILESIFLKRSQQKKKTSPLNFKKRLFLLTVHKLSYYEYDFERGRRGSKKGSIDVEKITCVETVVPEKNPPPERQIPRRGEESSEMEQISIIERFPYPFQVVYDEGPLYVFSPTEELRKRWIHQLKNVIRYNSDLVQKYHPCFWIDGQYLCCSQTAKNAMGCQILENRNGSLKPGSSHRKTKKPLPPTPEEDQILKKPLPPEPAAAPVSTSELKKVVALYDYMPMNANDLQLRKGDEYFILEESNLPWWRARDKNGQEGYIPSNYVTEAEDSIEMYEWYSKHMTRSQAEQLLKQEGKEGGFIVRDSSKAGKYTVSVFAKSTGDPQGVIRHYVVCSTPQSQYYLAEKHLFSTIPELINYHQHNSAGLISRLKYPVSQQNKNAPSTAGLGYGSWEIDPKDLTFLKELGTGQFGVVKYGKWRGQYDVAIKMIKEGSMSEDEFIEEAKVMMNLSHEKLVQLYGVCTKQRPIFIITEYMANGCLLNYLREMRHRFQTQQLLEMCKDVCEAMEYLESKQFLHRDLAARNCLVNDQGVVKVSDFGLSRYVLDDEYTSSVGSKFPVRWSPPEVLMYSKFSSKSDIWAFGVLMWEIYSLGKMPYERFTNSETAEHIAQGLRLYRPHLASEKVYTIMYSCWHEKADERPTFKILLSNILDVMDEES
Sequence of Lck (P06239 whole entry): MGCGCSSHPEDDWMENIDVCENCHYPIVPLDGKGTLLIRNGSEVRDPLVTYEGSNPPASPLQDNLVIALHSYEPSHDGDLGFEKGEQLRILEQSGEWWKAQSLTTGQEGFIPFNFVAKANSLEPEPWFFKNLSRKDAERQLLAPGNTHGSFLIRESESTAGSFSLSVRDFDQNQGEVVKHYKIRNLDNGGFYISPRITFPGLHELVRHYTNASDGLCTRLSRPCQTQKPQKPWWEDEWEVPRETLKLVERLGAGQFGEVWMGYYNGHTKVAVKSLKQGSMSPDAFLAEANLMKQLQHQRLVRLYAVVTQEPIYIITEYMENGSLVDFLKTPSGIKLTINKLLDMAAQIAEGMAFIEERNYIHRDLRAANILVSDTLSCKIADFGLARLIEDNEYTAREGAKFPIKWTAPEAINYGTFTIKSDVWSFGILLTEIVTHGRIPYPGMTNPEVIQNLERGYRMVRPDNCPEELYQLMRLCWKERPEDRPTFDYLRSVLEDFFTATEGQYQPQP
Sequence of LynA (P07948 whole entry): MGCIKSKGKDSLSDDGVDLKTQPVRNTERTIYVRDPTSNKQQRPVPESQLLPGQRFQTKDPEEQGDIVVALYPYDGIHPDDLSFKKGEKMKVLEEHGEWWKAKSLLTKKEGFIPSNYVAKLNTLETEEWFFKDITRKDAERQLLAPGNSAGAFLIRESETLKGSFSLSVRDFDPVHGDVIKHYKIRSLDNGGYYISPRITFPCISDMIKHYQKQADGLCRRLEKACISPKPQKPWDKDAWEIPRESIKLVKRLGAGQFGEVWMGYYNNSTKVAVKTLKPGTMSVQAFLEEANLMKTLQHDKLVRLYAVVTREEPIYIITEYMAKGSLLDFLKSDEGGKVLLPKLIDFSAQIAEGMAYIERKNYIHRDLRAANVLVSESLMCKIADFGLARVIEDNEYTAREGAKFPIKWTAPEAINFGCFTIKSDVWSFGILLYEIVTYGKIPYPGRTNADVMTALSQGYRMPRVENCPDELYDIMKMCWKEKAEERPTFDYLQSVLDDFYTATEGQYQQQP

On to `C=CC(=O)N1CCCC(n2nc(/C=C/c3ccccc3Cl)c3c(N)ncnc32)C1` (stereo not shown) [Embodiment 16, 1-(3-(4-amino-3-(2-chlorophenylvinyl)-1H-pyrazolo[3,4-D]pyrimidine-1-yl)-piperidyl)-2-propylene-1-one], for which, in data set [1], the IC50 came to 0.0167 µM.
On the same count and under the same terms, for `C=CC(=O)NN1CCC[C@@H](n2nc(-c3ccc(Oc4ccccc4F)cc3)c3c(N)ncnc32)C1` [Embodiment 42] the value was 0.0009 µM.
The compound `C=CC(=O)N1CCCC(n2nc(/C=C/c3ccccn3)c3c(N)ncnc32)C1` (stereo not shown) [Embodiment 13, 1-(3-(4-amino-3-(2-2-pyridyl)vinyl-1H-pyrazolo[3,4-D]pyrimidine-1-yl)-piperidyl)-2-propylene-1-one] registered an IC50 in data set [1] of 0.00046 µM. Also, in data set [2], the “Remaining (*NCF = 60 min)” value is on record as 94.7%, the “Remaining (T = 60 min)” value stood at 5.0%, the half-life at 1 µM was determined as 13.7 min and the microsomal CLint at 1 µM came to 101 µL/min/mg. The CLint scaled at 1 µM in data set [2] was 10.9 L/h/kg. Also, in data set [3], the “Remaining (*NCF = 60 min)” value is listed as 93.1%, the “Remaining (T = 60 min)” value was 14.0%, the half-life at 1 µM was determined as 20.5 min and the microsomal CLint at 1 µM is 67.6 µL/min/mg. Besides, the CLint scaled at 1 µM in data set [3] amounted to 3.65 L/h/kg. Moreover, the “LynA[IC50]/Btk[IC50]” value in data set [4] was determined as 507. For the same compound, the “Lck[IC50]/Btk[IC50]” value in data set [5] is given as 420.
The compound `C=CC(=O)NN1CCCC(n2c(=O)n(-c3ccc(Oc4ccccc4)cc3)c3c(N)ncnc32)C1` (stereo not shown) [Embodiment 29] registered an IC50 in data set [1] greater than 1 µM.
Same read-out and setting: for `C=CC(=O)N(C)N1CCC[C@@H](n2c(=O)n(-c3ccc(Oc4ccccc4)cc3)c3c(N)ncnc32)C1` [Embodiment 30] the value was 0.0768 µM.
On the same count and under the same terms, for `C=CC(=O)NN1CCC[C@@H](n2c(=O)n(-c3ccc(C(=O)Nc4ccccn4)cc3)c3c(N)ncnc32)C1` [Embodiment 40, 4-(9-(1-acrylamidepiperidine-3-yl)-6-amino-8-oxo-8,9-dihydro-7H-purine-7-yl)-N-(pyridin-2-yl)benzamide] the value was 0.023 µM.
`C=CC(=O)N(C)N1CCCC(n2nc(-c3ccc(Oc4ccccc4)cc3)c3c(N)ncnc32)C1` (stereo not shown) [Embodiment 8]: in data set [2], the “Remaining (*NCF = 60 min)” value is listed as 111.2%, the “Remaining (T = 60 min)” value was determined as 0.2%, the half-life at 1 µM is 3.8 min and the microsomal CLint at 1 µM turned out to be 366 µL/min/mg. In data set [2], this compound showed a CLint scaled at 1 µM of 39.5 L/h/kg. In data set [3], the “Remaining (*NCF = 60 min)” value was found to be 105.8%, the “Remaining (T = 60 min)” value worked out at 0.0%, the half-life at 1 µM was determined as 3.7 min and the microsomal CLint at 1 µM was 374 µL/min/mg. Also, the CLint scaled at 1 µM in data set [3] turned out to be 20.2 L/h/kg. Also, in data set [4], the “LynA[IC50]/Btk[IC50]” value is 62.5. In data set [5], the “Lck[IC50]/Btk[IC50]” value turned out to be 139.
In data set [1], `C=CC(=O)N1CCC[C@@H](n2c(=O)n(-c3ccc(-c4noc(CCCCl)n4)cc3)c3c(N)ncnc32)C1` [Embodiment 36, 9-(1-allylpropionylpiperidine-3-yl)-6-amino-7-(4-(5-(3-chloropropyl)-1,2,4-oxadiazole-3-yl)phenyl)-7,9-dihydro-8H-purine-8-one] displayed an IC50 greater than 1 µM.
Turning to `C=CC(=O)N1CCC[C@@H](n2nc(-c3ccc(-c4noc(C)n4)cc3)c3c(N)ncnc32)C1` [Embodiment 22, 1-(3-(4-amino-3-(4-(5-methyl-1,2,4-oxadiazole-3-yl)phenyl)-1H-pyrazolo[3,4-D]pyrimidine-1-yl)-1-piperidyl)-2-propylene-1-one], the IC50 in data set [1] came out at 0.145 µM.
On the same count and under the same terms, for `C=CC(=O)N1CCC[C@@H](n2nc(/C=C/c3cccc(Cl)c3)c3c(N)ncnc32)C1` [Embodiment 15, 1-(3-(4-amino-3-(3-chlorophenylvinyl)-1H-pyrazolo[3,4-D]pyrimidine-1-yl)-piperidyl)-2-propylene-1-one] the value was 0.0069 µM; for `C=CC(=O)N1CCCC(n2c(=O)n(-c3ccc(-c4noc(C)n4)cc3)c3c(N)ncnc32)C1` (stereo not shown) [Embodiment 34, 9-(1-allylpropionylpiperidine-3-yl)-6-amino-7-(4-(5-methyl-1,2,4-oxadiazole-3-yl)phenyl)-7,9-dihydro-8H-purine-8-one], 0.209 µM.
On the same count and under the same terms, for `C=CC(=O)N1CCC[C@@H](n2nc(-c3ccc(-c4noc(CCCCl)n4)cc3)c3c(N)ncnc32)C1` [Embodiment 24, 1-(3-(4-amino-3-(4-(5-(3-chloropropyl)-1,2,4-oxadiazole-3-yl)phenyl)-1H-pyrazolo[3,4-D]pyrimidine-1-yl)-1-piperidyl)-2-propylene-1-one] the value was 0.078 µM.
Consider `C=CC(=O)N1CCC[C@@H](n2nc(-c3ccc(Oc4ccccc4)cc3)c3c(N)ncnc32)C1` [Ibrutinib], for which the bioavailability in data set [6] is given as 2.9%.
As for `C=CC(=O)N(C)N1CCC[C@@H](n2nc(-c3ccc(Oc4ccccc4)cc3)c3c(N)ncnc32)C1` [Embodiment 8], the IC50 in data set [1] turned out to be 0.00064 µM.
Same read-out and setting: for `C=CC(=O)N1CCCC(n2c(=O)n(-c3ccc(-c4noc(C=C)n4)cc3)c3c(N)ncnc32)C1` (stereo not shown) [Embodiment 35, 9-(1-allylpropionylpiperidine-3-yl)-6-amino-7-(4-(5-vinyl-1,2,4-oxadiazole-3-yl)phenyl)-7,9-dihydro-8H-purine-8-one] the value was 0.176 µM.
The same measure, in the same setting: for `C=CC(=O)N1CCC[C@@H](n2nc(/C=C/c3ccc(Cl)cc3)c3c(N)ncnc32)C1` [Embodiment 14, 1-(3-(4-amino-3-(4-chlorophenylvinyl)-1H-pyrazolo[3,4-D]pyrimidine-1-yl)-piperidyl)-2-propylene-1-one] the value was 0.00582 µM; for `C=CC(=O)NN1CCCC(c2nc(-c3ccc(Oc4ccccc4)cc3)c3c(N)nccn23)C1` (stereo not shown) [Embodiment 51, N-(3-(8-amino-1-(4-phenoxyphenyl)imidazo[1,5-a]pyrazine-3-yl)-1-piperidyl) acrylamide], 0.0051 µM.
